The results in this text go back to patent publication US11739161B2, “Methods for treating and diagnosing prostate cancer” (Tufts Medical Center, Inc., priority 2017, dated 2023).

Common to all, as to format: cell-based, human
The subject of assay [1] is AKT and S6 phosphorylation in DU145 cells. The assay can be described thus: RNASE4-induced phosphorylation of AKT and S6 (immunoblot). The following applies: then 1 μg/ml RNASE4 5 minutes. As to the method: (§1) FIGS. 10A-E. RNASE4 induces prostate cancer cell proliferation and phosphorylation of AKT and S6. (A and B) Exogenous RNASE4 (1 μg/ml) stimulates cell proliferation (A) and cell cycle progression (B) of DU145 cells cultured in the presence of 2% FBS. Cell numbers were determined by MTT assay. Cell cycle status was determined by flow cytometry after 24 hour incubation with RNASE4. (C) Time course of AKT and S6 phosphorylation of serum-starved DU145 cells by RNASE4 (1 μg/ml). Left panels, immunoblots; right panels, quantification of p-AKT and p-S6 normalized to total AKT and S6 by Image J analysis. […] Cells were pre-incubated with the inhibitors at the indicated concentrations for 1 hour prior to be stimulated by 1 μg/ml of RNASE4 for 5 minutes. Top panels, immunoblots; bottom panels, Image J quantification of p-AKT and p-S6 normalized to total AKT and S6. (E) Effect of AKT inhibitor MK-2206, PI3K inhibitors Wortmannin and LY294002, and mTOR inhibitor Rapamycin on RNASE4-induced cell proliferation. DU145 cells were serum-starved overnight, incubated with the inhibitors for 1 hour, and then treated with RNASE4 (1 μg/ml) for three days. Cell numbers were determined by MTT assay. Data shown are from a representative experiments in triplicates of 3 independent repeats. Error bars indicate SEM. **P≤0.01, by unpaired two-tailed Student's t test.
(§2) FIGS. 12A-F. RNASE4 induces AXL phosphorylation. (A) Human phospho-receptor tyrosine kinase (RTK) antibody array analysis. Serum-starved DU145 cells were treated with or without 1 μg/ml of RNASE4 for 5 minutes. A total of 1.5 mg cell lysate protein was blotted on each array membrane. […] (B) Immunoblot analysis of RNASE4-stimulated AXL phosphorylation. DU145 cells were serum-starved overnight and treated with 1 μg/ml of RNASE4 for the indicated time. Cell lysates were analyzed by antibodies against total AXL and phospho-AXL, with β-actin as the loading control. Left panels, immunoblots; right panel, Image J quantification of p-AXL normalized to total AXL. (C) Immunoblot analysis of phospho-AXL in response to stimulation by ANG, RNase A, and RNASE4. DU145 cells were serum-starved overnight and treated with 1 μg/ml of ANG, RNase A, or RNASE4 for 15 minutes. Left panels, immunoblots; right panel, quantification. (D) Effect of AXL inhibitor R428 on RNASE4-induced cell proliferation. Serum-starved DU145 cells were incubated with 1 or 3 μM R428 for 3 hours and then stimulated by 1 μg/ml of RNASE4 for 3 days. Cell numbers were determined by MTT assay. Data shown are means±SEM of a representative experiment (in triplicates) of 3 independent repeats. **P≤0.01 and ***P≤0.001, by unpaired two-tailed Student's t test. (E) Effect of AXL inhibitor R428 on RNASE4-induced AKT and P6 phosphorylation. Serum-starved DU145 cells were incubated with 1 or 3 μM R428 for 3 hours and then stimulated by 1 μg/ml of RNASE4 for 5 minutes. Cell lysates were analyzed for AKT and P6 phosphorylation by immunoblotting. Top panels, immunoblots; bottom panels, quantification of phospho-AKT and phospho-S6 by Image J analyses normalized to total AKT and P6, respectively. (F) Schematic presentation of proposed involvement of AXL in RNASE4-stimulated cellular events.

The test system of assay [2] is DU145 cells. The assay can be described thus: RNASE4-induced cell proliferation (MTT assay). As to the method:
as §1
FIGS. 12A-F. RNASE4 induces AXL phosphorylation. (A) Human phospho-receptor tyrosine kinase (RTK) antibody array analysis. Serum-starved DU145 cells were treated with or without 1 μg/ml of RNASE4 for 5 minutes. […] Cell lysates were analyzed by antibodies against total AXL and phospho-AXL, with β-actin as the loading control. Left panels, immunoblots; right panel, Image J quantification of p-AXL normalized to total AXL. […] Left panels, immunoblots; right panel, quantification. […] Cell numbers were determined by MTT assay. […] Cell lysates were analyzed for AKT and P6 phosphorylation by immunoblotting. Top panels, immunoblots; bottom panels, quantification of phospho-AKT and phospho-S6 by Image J analyses normalized to total AKT and P6, respectively. […]

For assay [3], the system named is PC-3 cells. Put plainly: RNASE4-induced cell proliferation (MTT assay). As to the method:
FIGS. 11A-F. RNASE4 induces PC-3 cell proliferation and phosphorylation of AKT and S6. (A) Exogenous RNASE4 (1 μg/ml) stimulates PC-3 cells proliferation in the presence of 2% FBS. Cell numbers were determined by MTT assay. (B) Time course of AKT and S6 phosphorylation of serum-starved PC-3 cells by RNASE4 (1 μg/ml). Left panels, immunoblots; right panels, quantification of p-AKT and p-S6 normalized to total AKT and S6 by Image J. (C) Effect of AKT inhibitor MK-2206, PI3K inhibitors LY294002 and Wortmannin, and mTOR inhibitor Rapamycin on RNASE4-induced PC-3 cell proliferation. Cells were pre-incubated with the inhibitors at the indicated concentrations for 1 hour prior to be stimulated by RNASE4 (1 μg/ml) for 3 days. Cell numbers were determined by MTT assay. (D) Human phospho-RTK antibody array analysis of starved PC-3 cells treated with or without 1 μg/ml RNASE4 for 5 minutes. (E) Time course of AXL phosphorylation stimulated by RNASE4 in PC-3 cells. Serum-starved PC-3 cells were treated with 1 μg/ml RNASE4 for different time. Cell lysates were analyzed for total AXL and phopho-AXL by immunoblotting. Left panels, immunoblots; right panel, quantification phospho-AXL normalized to total AXL by Image J analysis. (F) Effect of AXL inhibitor R428 on RNASE4-induced PC-3 cell proliferation. Serum-starved PC-3 cells were incubated with 1 or 3 μM R428 for 3 hours and then stimulated by 1 μg/ml of RNASE4 for 3 days. Cell numbers were determined by MTT assay. Data shown are means±SEM of a representative experiments in triplicates of 3 independent repeats. **P≤0.01 and ***P≤0.001, by unpaired two-tailed Student's t test.

Assay [4] deals with AXL phosphorylation in DU145 cells. The assay can be described thus: AXL phosphorylation (phospho-RTK array, immunoblot). The note with it: serum-starved DU145, 1 μg/ml protein. As to the method: as §2
Human Phospho-RTK Arrays were purchased from R&D Systems. […] Protein concentrations were quantified by Bradford Assay and 1.5 mg cell lysate was used per array. Pixel densities on were analyzed by ImageJ. […]

Setting [5] is: serum-starved DU145, 1 or 3 μM R428 3 hours.

As to `NC1(c2ccc(-c3nc4ccn5c(=O)[nH]nc5c4cc3-c3ccccc3)cc2)CCC1` [MK-2206], in assay [1] (DU145, inhibitor 1 hour), the “RNASE4-induced AKT phosphorylation” value is recorded as “inhibited” and the “RNASE4-induced S6 phosphorylation” value is listed as “inhibited”. The RNASE4-induced cell proliferation result in assay [2] (serum-starved DU145, inhibitor 1 hour, then RNASE4 1 μg/ml three days) is on record as “abolished”. The RNASE4-induced cell proliferation result in assay [3] (PC-3, inhibitor 1 hour, then RNASE4 1 μg/ml 3 days) is listed as “abolished”.
On to `Nc1nc(Nc2ccc3c(c2)CCC(N2CCCC2)CC3)nn1-c1cc2c(nn1)-c1ccccc1CCC2` (stereo not shown) [R428], for which the “RNASE4-induced AKT phosphorylation” value in assay [1] (setting [5]) was “inhibted”. Further, in assay [1] (setting [5]), the “RNASE4-induced S6 phosphorylation” value was “inhibted”. The RNASE4-induced cell proliferation entry in assay [2] (serum-starved DU145, 1 or 3 μM R428 3 hours, then 1 μg/ml RNASE4 3 days) was “inhibted”; in assay [3] (serum-starved PC-3, 1 or 3 μM R428 3 hours, then 1 μg/ml RNASE4 3 days), “inhibted”.
On to “ANG: Angiogenin, another member of the pancreatic ribonuclease superfamily [reference compound]”, for which the “phosphorylation of AXL” value in assay [4] is on record as “do not induce”.

B1: RNase A: member of the pancreatic ribonuclease superfamily (protein, UniProt P61823 27-150, looked up)
Ribonuclease pancreatic: KETAAAKFERQHMDSSTSAASSSNYCNQMMKSRNLTKDRCKPVNTFVHESLADVQAVCSQKNVACKNGQTNCYQSYSTMSITDCRETGSSKYPNCAYKTTQANKHIIVACEGNPYVPVHFDASV
As to B1, the “phosphorylation of AXL” value in assay [4] was “do not induce”.
